Measured values: patent US11612595B2, “Compositions and methods for treating rheumatoid arthritis” (Generos Biopharma Ltd., priority 2017, dated 2023)

Key:
[1] = weight changes in mouse CIA model; assay type: in vivo, DBA/1J mice
Procedure: FIGS. 7A and 78 show graphs depicting weight changes in five groups of mouse CIA models under different treatment schemes. DBA/1 mice were randomly divided into 9 groups with 10 mice each group. On day 0 and 21, all of them except blank control group were inoculated with 50 ul collagen plus CFA mixture subcutaneously at back flank near tail. The weights of all 90 mice were monitored 3 times a week throughout the experiment.
Eight of nine groups (10 mice in each group) of male DBA/1J mice (age 9-10 weeks. H-2q haplotype) were subject to CIA model induction and then to different treatment schemes. The group of mice without CIA model induction was used as a control (Blank). Specifically, Bovine type II collagen (Chondrex) was mixed with Freund's complete adjuvant (CFA) (Sigma) and injected s.c. to flank near tail of the mice twice (the second injection was made 21 days after the first injection) to create CIA model mice. The eight groups of CIA model mice were separated into four prophylactic groups and four therapeutic groups, with each group subjected to different treatments.
In the four prophylactic groups, daily treatments started from the date when the first CIA induction injection was made. The first of the four prophylactic groups of CIA model mice were treated with 30% PEG300 (containing 4% DMSO-all 30% PEG300 in the application contains 4% DMSO) solution via intraperitoneal injection as controls (Model). The second of the four prophylactic groups of CIA model mice were treated with nicotinohydrazide (Calbiochem) 10 mg/kg in 30% PEG300 solution via intraperitoneal injection (573108 10 mg/kg). The third of the four prophylactic groups of CIA model mice were treated with nicotinohydrazide (Calbiochem) 5 mg/kg in 30% PEG300 solution via intraperitoneal injection (573108 5 mg/kg). The last of the four prophylactic groups of CIA model mice were treated with Tofacitinib (Selleckchem) 5 mg/kg in 30% PEG300 solution via intraperitoneal injection (Tofacitinib 5 mg/kg).
In the four therapeutic groups, daily treatments started from the date when the second CIA induction injection was made. The first of the four therapeutic groups of CIA model mice were treated with 30% PEG300 solution via intraperitoneal injection as controls (Model). The second of the four therapeutic groups of CIA model mice were treated with nicotinohydrazide (Calbiochem) 10 mg/kg in 30% PEG300 solution via intraperitoncal injection (573108 10 mg/kg). The third of the four therapeutic groups of CIA model mice were treated with nicotinohydrazide (Calbiochem) 5 mg/kg in 30% PEG300 solution via intraperitoneal injection (573108 5 mg/kg). The last of the four therapeutic groups of CIA model mice were treated with Tofacitinib (Selleckchem) 5 mg/kg in 30% PEG300 solution via intraperitoncal injection (Tofacitinib 5 mg/kg).
The inventors collected data of the weight, and clinical scores of the mice every 2-3 days and performed statistic analysis. The method used in the statistic analysis was Student's t test, unpaired, two-tailed analysis.

STAT5b SH2 domain = target: T1, STAT5b SH2 domain (Homo sapiens, UniProt P51692); conditions: read-out: IC50 against STAT5b SH2 domain EPO peptide binding activity; cited from earlier work
T1 sequence (P51692 1-787): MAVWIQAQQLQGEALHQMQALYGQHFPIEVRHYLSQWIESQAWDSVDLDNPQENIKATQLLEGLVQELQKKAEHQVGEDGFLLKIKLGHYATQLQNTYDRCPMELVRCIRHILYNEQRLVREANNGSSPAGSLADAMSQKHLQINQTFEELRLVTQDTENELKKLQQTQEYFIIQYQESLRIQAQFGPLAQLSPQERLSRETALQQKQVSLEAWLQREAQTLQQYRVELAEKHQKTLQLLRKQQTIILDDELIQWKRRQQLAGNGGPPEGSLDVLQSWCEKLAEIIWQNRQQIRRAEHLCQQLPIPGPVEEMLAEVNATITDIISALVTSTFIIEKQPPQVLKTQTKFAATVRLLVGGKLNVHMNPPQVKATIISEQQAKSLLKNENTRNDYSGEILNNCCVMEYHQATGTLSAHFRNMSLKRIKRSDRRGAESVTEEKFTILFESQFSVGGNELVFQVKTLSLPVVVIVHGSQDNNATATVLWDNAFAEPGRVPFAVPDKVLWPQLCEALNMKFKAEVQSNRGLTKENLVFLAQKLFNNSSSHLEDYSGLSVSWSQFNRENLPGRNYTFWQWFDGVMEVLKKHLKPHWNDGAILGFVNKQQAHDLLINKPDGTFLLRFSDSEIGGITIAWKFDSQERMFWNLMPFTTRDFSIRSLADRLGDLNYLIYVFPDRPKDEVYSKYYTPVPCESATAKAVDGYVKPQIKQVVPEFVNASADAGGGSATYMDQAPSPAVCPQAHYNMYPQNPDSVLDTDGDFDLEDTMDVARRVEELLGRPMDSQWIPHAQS

SH2 domain of STAT3 = SH2 domain of STAT3 (Homo sapiens, UniProt P40763); conditions: read-out: IC50 towards the SH2 domain of STAT3; cited from earlier work
AIA mouse model = AIA mouse model (mBSA-induced knee arthritis); assay type: in vivo, mice (C57BL/6); conditions: 10 mg/kg intraperitoneal
Procedure: This example describes a method of RA treatment with pimozide in a AIA mouse model. The right knees of fourteen mice (C57BL/6) were immunized with mBSA injection on the right knee to induce arthritis, while the left knees were used as control. Nine of the mice was then treated with pimozide. Specifically, pimozide was dissolved in DMSO at a concentration of 50 mg/ml, and then diluted in 30% PEG300 (Sigma) for intraperitoneal injection at 10 mg/kg dose. The remaining five mice were treated with vehicle DMSO that is diluted in 30% PEG300 for intraperitoneal injection. After 7 days, the mice were sacrificed and knees were dissected and fixed in 10% formalin and decalcified in 5% formic acid before dehydration and embedding in paraffin followed by standard hematoxylin and eosin (H&E) stain procedure.

[2] = prophylactic groups, 5 mg/kg i.p. daily
[3] = prophylactic groups, 10 mg/kg i.p. daily
[4] = therapeutic groups, 5 mg/kg i.p. daily

Sequence of SH2 domain of STAT3 (P40763 whole entry, the tested form may be a part): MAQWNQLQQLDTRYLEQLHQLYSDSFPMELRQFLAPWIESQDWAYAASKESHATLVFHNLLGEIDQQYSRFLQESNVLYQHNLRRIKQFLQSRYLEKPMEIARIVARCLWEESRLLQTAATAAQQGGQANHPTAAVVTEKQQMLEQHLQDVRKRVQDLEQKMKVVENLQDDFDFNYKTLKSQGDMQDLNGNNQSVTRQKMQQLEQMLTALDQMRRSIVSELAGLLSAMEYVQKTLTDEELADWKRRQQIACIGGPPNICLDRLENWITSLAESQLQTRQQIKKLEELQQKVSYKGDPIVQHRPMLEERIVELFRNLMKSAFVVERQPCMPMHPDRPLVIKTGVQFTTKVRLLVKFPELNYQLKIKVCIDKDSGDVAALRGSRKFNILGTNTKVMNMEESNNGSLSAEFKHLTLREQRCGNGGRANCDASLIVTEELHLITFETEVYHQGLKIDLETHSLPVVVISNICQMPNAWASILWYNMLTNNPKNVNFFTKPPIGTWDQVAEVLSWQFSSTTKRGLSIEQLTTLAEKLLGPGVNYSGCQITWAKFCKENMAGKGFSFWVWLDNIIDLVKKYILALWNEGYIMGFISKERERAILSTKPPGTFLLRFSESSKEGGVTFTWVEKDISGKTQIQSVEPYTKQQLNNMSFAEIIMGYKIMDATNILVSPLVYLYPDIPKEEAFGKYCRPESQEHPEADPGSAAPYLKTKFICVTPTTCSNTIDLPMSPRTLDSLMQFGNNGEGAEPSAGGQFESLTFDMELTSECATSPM

SMILES: O=C(N/N=C/c1coc2ccccc2c1=O)c1cccnc1 [nicotinohydrazide, N′-((4-Oxo-4H-chromen-3-yl)methylene)nicotinohydrazide]
- trend of weight changes, p vs Model [1, 2]: 0.4638
- trend of weight changes, p vs Tofacitinib 5 mg/kg [1, 2]: 0.0136
- trend of weight changes, p vs Model [1, 3]: 0.32
- trend of weight changes, p vs Tofacitinib 5 mg/kg [1, 3]: 0.0207
- trend of weight changes, p vs Model [1, 4]: < 0.0001
- trend of weight changes, p vs Tofacitinib 5 mg/kg [1, 4]: 0.0006
- trend of weight changes, p vs Model ([1]; therapeutic groups, 10 mg/kg i.p. daily): < 0.0001
- IC50 (STAT5b SH2 domain): 47 µM
- IC50 (SH2 domain of STAT3): > 500 µM

SMILES: O=c1[nH]c2ccccc2n1C1CCN(CCCC(c2ccc(F)cc2)c2ccc(F)cc2)CC1 [pimozide, 1-[1-[4,4-bis(4-fluorophenyl)butyl]-4-piperidinyl]-1,3-dihydro-2H-benzimidazole-2-one]
- infiltration of immune cells in knee cavity (H&E staining) (AIA mouse model; after 7 days, vs vehicle): reduced infiltration of immune cells
- knee diameter differences (right knee vs left knee) (AIA mouse model; vs vehicle group): significantly smaller
